Reference: ChEMBL document CHEMBL4400526, “Design, synthesis and anti-bacterial studies of piperazine derivatives against drug resistant bacteria” (2019)
In brackets after ≈: the same amount, converted by molar mass. Activity calls are given as the source filed them. No cut-off for these calls is given here.

Tests used:
Assay type in all cases: functional
[1] = test system: Bacillus spizizenii; experiment: Antibacterial activity against Bacillus subtilis ATCC 6633 measured after overnight incubation
[2] = test system: Staphylococcus aureus; experiment: Antibacterial activity against Staphylococcus aureus ATCC 6538 measured after overnight incubation
[3] = test system: Escherichia coli; experiment: Antibacterial activity against Escherichia coli ATCC 25922 measured after overnight incubation
[4] = test system: Pseudomonas aeruginosa; experiment: Antibacterial activity against Pseudomonas aeruginosa ATCC 15442 measured after overnight incubation
[5] = test system: Klebsiella pneumoniae; experiment: Antibacterial activity against Klebsiella pneumoniae ATCC 1705 measured after overnight incubation; conditions: ATCC BAA-1705
[6] = test system: Staphylococcus aureus; experiment: Antibacterial activity against methicillin-resistant Staphylococcus aureus clinical isolates measured after overnight incubation
[7] = test system: Pseudomonas aeruginosa; experiment: Antibacterial activity against Pseudomonas aeruginosa clinical isolates measured after overnight incubation
[8] = test system: Escherichia coli; experiment: Antibacterial activity against Escherichia coli clinical isolates measured after overnight incubation
[9] = test system: Streptococcus pyogenes; experiment: Antibacterial activity against Streptococcus hemolyticus clinical isolates measured after overnight incubation
[10] = test system: Staphylococcus aureus; experiment: Antibacterial activity against Staphylococcus aureus
[11] = test system: Staphylococcus epidermidis; experiment: Antibacterial activity against Staphylococcus epidermidis
[12] = test system: Escherichia coli; experiment: Antibacterial activity against Escherichia coli

| SMILES | MIC [1] | MIC [2] | MIC [3] | MIC [4] | MIC ([3]; read-out: MIC) | MIC ([4]; read-out: MIC) | MIC [5] | MIC [6] | MIC [7] | MIC [8] | MIC [9] | MIC50 [10] | MIC50 [11] | MIC50 [12] |
| --- | --- | --- | --- | --- | --- | --- | --- | --- | --- | --- | --- | --- | --- | --- |
| NCC1(CC(=O)O)CCCCC1 | inactive | inactive | inactive | inactive | – | – | – | – | – | – | – | – | – | – |
| NNC(=O)c1ccncc1 | inactive | inactive | inactive | inactive | – | – | – | – | – | – | – | – | – | – |
| O=C(O)c1cn(C2CC2)c2cc(N3CCNCC3)c(F)cc2c1=O [CIPROFLOXACIN] | 8 µg/mL | 8 µg/mL | – | – | – | – | – | – | – | – | – | – | – | – |
| O=C(O)CC1(CNCN2CCNCC2)CCCCC1 | 119 µM | 119 µM | – | – | 238 µM (≈ 64 µg/mL) | 238 µM (≈ 64 µg/mL) | 238 µM (≈ 64 µg/mL) | – | – | – | – | – | – | – |
| NS(=O)(=O)c1ccc(NC(=O)CC2(CNCN3CCN(c4cc5c(cc4F)c(=O)c(C(=O)O)cn5C4CC4)CC3)CCCCC2)cc1 | 1.4 µM | 1.4 µM | – | – | 0.7 µM (≈ 0.468 µg/mL) | 0.7 µM (≈ 0.468 µg/mL) | 0.7 µM (≈ 0.468 µg/mL) | 0.74 µM (≈ 0.495 µg/mL) | 0.74 µM | 0.74 µM | – | – | – | – |
| O=C(O)CC1(CNCN2CCN(c3cc4c(cc3F)c(=O)c(C(=O)O)cn4C3CC3)CC2)CCCCC1 | 62.1 µM | – | – | – | 15.5 µM (≈ 7.98 µg/mL) | 15.5 µM (≈ 7.98 µg/mL) | 15.5 µM (≈ 7.98 µg/mL) | – | 7.7 µM | 7.7 µM | 62.1 µM | – | – | – |
| O=C(O)CC1(CNCCN2CCN(c3cc4c(cc3F)c(=O)c(C(=O)O)cn4C3CC3)CC2)CCCCC1 | 30.2 µM | 30.2 µM | – | – | 7.5 µM (≈ 3.96 µg/mL) | 15.1 µM (≈ 7.98 µg/mL) | 7.5 µM (≈ 3.96 µg/mL) | 30.2 µM (≈ 16 µg/mL) | 3.7 µM | 3.7 µM | – | – | – | – |
| COc1nc(NNC(=O)c2ccncc2)nc(N2CCNCC2)n1 | 49.2 µM | 49.2 µM | – | – | 98.4 µM (≈ 32.5 µg/mL) | 98.4 µM (≈ 32.5 µg/mL) | 197 µM (≈ 65 µg/mL) | – | – | – | – | – | – | – |
| NS(=O)(=O)c1ccc(NCCN2CCN(c3cc4c(cc3F)c(=O)c(C(=O)O)cn4C3CC3)CC2)cc1 | 3.7 µM | 3.7 µM | – | – | 7.5 µM (≈ 3.97 µg/mL) | 7.5 µM (≈ 3.97 µg/mL) | 7.5 µM (≈ 3.97 µg/mL) | 3.7 µM (≈ 1.96 µg/mL) | 7.5 µM | 7.5 µM | 3.7 µM | – | – | – |
| O=C(NNCN1CCNCC1)c1ccncc1 | inactive | inactive | inactive | inactive | – | – | inactive | – | – | – | – | – | – | – |
| O=C(NNCN1CCN(c2cc3c(cc2F)c(=O)c(C(=O)O)cn3C2CC2)CC1)c1ccncc1 | 7.7 µM | 4.1 µM | – | – | 7.7 µM (≈ 3.7 µg/mL) | 7.7 µM (≈ 3.7 µg/mL) | 7.7 µM (≈ 3.7 µg/mL) | 2 µM (≈ 0.961 µg/mL) | 33.2 µM | 33.2 µM | 8.3 µM | – | – | – |
| O=C(O)c1ccc(NCN2CCN(c3cc4c(cc3F)c(=O)c(C(=O)O)cn4C3CC3)CC2)cc1 | 16.6 µM | 16.6 µM | – | – | 8.3 µM (≈ 3.99 µg/mL) | 8.3 µM (≈ 3.99 µg/mL) | 16.6 µM (≈ 7.98 µg/mL) | 66.5 µM (≈ 32 µg/mL) | 8.3 µM | 8.3 µM | 8.3 µM | – | – | – |
| O=C(O)c1ccc(NCN2CCNCC2)cc1 | 272 µM | 272 µM | 1090 µM (≈ 256 µg/mL) | 1090 µM (≈ 256 µg/mL) | – | – | 1090 µM (≈ 256 µg/mL) | – | – | – | – | – | – | – |
| C=CC1=C(C(=O)O)N2C(=O)[C@@H](NC(=O)/C(=N\OCC(=O)O)c3csc(N)n3)[C@H]2SC1 [CEFIXIME] | 0.06 µM | – | – | – | 0.06 µM (≈ 0.0272 µg/mL) | 0.06 µM (≈ 0.0272 µg/mL) | – | – | 0.5 µg/mL | 0.75 µg/mL | 0.25 µg/mL | – | – | – |
| NS(=O)(=O)c1ccc(NCN2CCNCC2)cc1 | inactive | inactive | inactive | inactive | – | – | inactive | – | – | – | – | – | – | – |
| O=C(O)c1ccc(NCCN2CCN(c3cc4c(cc3F)c(=O)c(C(=O)O)cn4C3CC3)CC2)cc1 | 2 µM | 2 µM | – | – | 1 µM (≈ 0.495 µg/mL) | 1 µM (≈ 0.495 µg/mL) | 2 µM (≈ 0.989 µg/mL) | 16.1 µM (≈ 7.96 µg/mL) | 1 µM | 1 µM | – | – | – | – |
| NS(=O)(=O)c1ccc(NCN2CCN(c3cc4c(cc3F)c(=O)c(C(=O)O)cn4C3CC3)CC2)cc1 | 0.9 µM | 0.9 µM | – | – | 1.9 µM (≈ 0.98 µg/mL) | 1.9 µM (≈ 0.98 µg/mL) | 1.9 µM (≈ 0.98 µg/mL) | 7.7 µM (≈ 3.97 µg/mL) | 7.7 µM | 7.7 µM | 7.7 µM | – | – | – |
| O=C(NNCCN1CCN(c2cc3c(cc2F)c(=O)c(C(=O)O)cn3C2CC2)CC1)c1ccncc1 | 1 µM | 1 µM | – | – | 4 µM (≈ 1.98 µg/mL) | 4 µM (≈ 1.98 µg/mL) | 4 µM (≈ 1.98 µg/mL) | 4 µM (≈ 1.98 µg/mL) | 8 µM | 8 µM | 8 µM | – | – | – |
| Nc1ccc(C(=O)O)cc1 | inactive | inactive | inactive | inactive | – | – | – | – | – | – | – | – | – | – |
| COc1cc(Cc2cnc(N)nc2N)cc(OC)c1OCCN1CCN(c2cc3c(cc2F)c(=O)c(C(=O)O)cn3C2CC2)CC1 | – | – | – | – | – | – | – | – | – | – | – | 0.5 µg/mL (≈ 0.789 µM) | 0.5 µg/mL (≈ 0.789 µM) | 1 µg/mL (≈ 1.58 µM) |
| Nc1ccc(S(N)(=O)=O)cc1 | inactive | inactive | inactive | inactive | – | – | – | – | – | – | – | – | – | – |
| CC[C@H]1OC(=O)[C@H](C)[C@@H](O[C@H]2C[C@@](C)(OC)[C@@H](O)[C@H](C)O2)[C@H](C)[C@@H](O[C@@H]2O[C@H](C)C[C@H](N(C)C)[C@H]2O)[C@](C)(O)C[C@@H](C)/C(=N\OCOCCOC)[C@H](C)[C@@H](O)[C@]1(C)O [ROXITHROMYCIN] | – | 0.039 µM | – | – | – | – | – | – | – | – | – | – | – | – |
